Laboratory results as given in PubChem BioAssay AID274 (DTP/NCI, 2004).
Toxic doses and inconclusive results are not listed.

Test system: BDF1 mice, Lewis lung carcinoma iv, survival T/C
Experiment: NCI In Vivo Anticancer Drug Screen. Data for tumor model Lewis Lung Carcinoma (intravenous) in B6D2F1 (BDF1) mice
Settings: endpoint: median survival time, higher = longer survival
Description: The antitumor activity of compounds was measured in mice bearing transplantable tumors. Survival or tumor size were measured and the results are expressed as the measurement made in the treated group (T) divided by the measurement made in the vehicle treated control group (C). The tumor model used in this assay is Lewis Lung Carcinoma (intravenous) in B6D2F1 (BDF1) mice

[1] = dose: 12.5 mg/kg/injection, schedule: Q01DX009 (ip), vehicle: saline
[2] = dose: 25.0 mg/kg/injection, schedule: Q01DX009 (ip), vehicle: saline
[3] = dose: 6.25 mg/kg/injection, schedule: Q01DX009 (ip), vehicle: Klucel (hydroxypropylcellulose) (HPC)
[4] = dose: 12.5 mg/kg/injection, schedule: Q01DX009 (ip), vehicle: Klucel (hydroxypropylcellulose) (HPC)
[5] = dose: 25.0 mg/kg/injection, schedule: Q01DX009 (ip), vehicle: Klucel (hydroxypropylcellulose) (HPC)
[6] = dose: 100.0 mg/kg/injection, schedule: Q01DX009 (ip), vehicle: saline with Tween-80
[7] = dose: 50.0 mg/kg/injection, schedule: Q01DX009 (ip), vehicle: saline
[8] = dose: 100.0 mg/kg/injection, schedule: Q01DX009 (ip), vehicle: saline

CCOC(=O)C(N)C[S][Sn]([CH3])([CH3])[Cl] (configuration not stated)
T/C (dose: 6.25 mg/kg/injection, schedule: Q01DX009 (ip), vehicle: saline): 100 % of control
T/C [1]: 102 % of control
T/C [2]: 95 % of control

O=C(NCCCCCCNC(=O)N1CC1)N1CC1
T/C (dose: 0.3 mg/kg/injection, schedule: Q01DX009 (ip), vehicle: saline): 104 % of control
T/C (dose: 0.6 mg/kg/injection, schedule: Q01DX009 (ip), vehicle: saline): 119 % of control
T/C (dose: 1.2 mg/kg/injection, schedule: Q01DX009 (ip), vehicle: saline): 115 % of control
T/C (dose: 2.4 mg/kg/injection, schedule: Q01DX009 (ip), vehicle: saline): 120 % of control

O=CC(O)C(O)C(O)C(O)C(=O)O.[NH-]C1CCCCC1[NH-].[Pt+2] (configuration not stated)
T/C (dose: 0.1 mg/kg/injection, schedule: Q01DX009 (ip), vehicle: suspension in saline): 92 % of control
T/C (dose: 0.2 mg/kg/injection, schedule: Q01DX009 (ip), vehicle: suspension in saline): 92 % of control
T/C (dose: 0.39 mg/kg/injection, schedule: Q01DX009 (ip), vehicle: suspension in saline): 104 % of control
T/C (dose: 0.78 mg/kg/injection, schedule: Q01DX009 (ip), vehicle: suspension in saline): 112 % of control
T/C (dose: 1.56 mg/kg/injection, schedule: Q01DX009 (ip), vehicle: suspension in saline): 108 % of control

COc1ccc2nc3cc(Cl)ccc3c(NCCNCCNCCNc3c4ccc(Cl)cc4nc4ccc(OC)cc34)c2c1
T/C (dose: 3.12 mg/kg/injection, schedule: Q01DX009 (ip), vehicle: Klucel (hydroxypropylcellulose) (HPC)): 99 % of control
T/C [3]: 103 % of control
T/C [4]: 89 % of control
T/C [5]: 97 % of control

Nc1cc2c3c(cccc3c1)C(=O)N(CCN1CCCC1)C2=O
T/C (dose: 3.12 mg/kg/injection, schedule: Q01DX009 (ip), vehicle: saline with Tween-80): 99 % of control
T/C (dose: 6.25 mg/kg/injection, schedule: Q01DX009 (ip), vehicle: saline with Tween-80): 103 % of control
T/C (dose: 12.5 mg/kg/injection, schedule: Q01DX009 (ip), vehicle: saline with Tween-80): 103 % of control
T/C (dose: 25.0 mg/kg/injection, schedule: Q01DX009 (ip), vehicle: saline with Tween-80): 115 % of control
T/C (dose: 50.0 mg/kg/injection, schedule: Q01DX009 (ip), vehicle: saline with Tween-80): 113 % of control
T/C [6]: 119 % of control

O=C(CCl)N1c2ccccc2Oc2cc3ccccc3cc21
T/C [6]: 107 % of control
T/C (dose: 200.0 mg/kg/injection, schedule: Q01DX009 (ip), vehicle: saline with Tween-80): 116 % of control
T/C (dose: 400.0 mg/kg/injection, schedule: Q01DX009 (ip), vehicle: saline with Tween-80): 111 % of control

CCCCCC[C@H]([C@H](C)O)n1cnc2c(N)ncnc21
T/C [3]: 99 % of control
T/C [4]: 104 % of control
T/C [5]: 103 % of control
T/C (dose: 100.0 mg/kg/injection, schedule: Q01DX009 (ip), vehicle: Klucel (hydroxypropylcellulose) (HPC)): 96 % of control
T/C (dose: 200.0 mg/kg/injection, schedule: Q01DX009 (ip), vehicle: Klucel (hydroxypropylcellulose) (HPC)): 99 % of control

O=C(CCN1CC1)Nc1cccc(NC(=O)CCN2CC2)c1
T/C (dose: 2.5 mg/kg/injection, schedule: Q01DX009 (ip), vehicle: saline with Tween-80): 110 % of control
T/C (dose: 5.0 mg/kg/injection, schedule: Q01DX009 (ip), vehicle: saline with Tween-80): 106 % of control
T/C (dose: 10.0 mg/kg/injection, schedule: Q01DX009 (ip), vehicle: saline with Tween-80): 123 % of control

O=P1(NCCCl)OCCCN1CCCl (configuration not stated)
T/C [1]: 114 % of control
T/C [2]: 112 % of control
T/C [7]: 163 % of control
T/C [8]: 305 % of control
T/C (dose: 108.0 mg/kg/injection, schedule: Q01DX001 (ip), vehicle: water): 112 % of control
T/C (dose: 190.0 mg/kg/injection, schedule: Q01DX001 (ip), vehicle: saline): 283 % of control
T/C (dose: 289.0 mg/kg/injection, schedule: Q01DX001 (ip), vehicle: saline): 283 % of control
T/C (dose: 431.0 mg/kg/injection, schedule: Q01DX001 (ip), vehicle: saline): 212 % of control
T/C (dose: 500.0 mg/kg/injection, schedule: Q01DX001 (ip), vehicle: water): 91 % of control

c1cc2n(n1)CCN2
T/C [7]: 105 % of control
T/C [8]: 104 % of control
T/C (dose: 200.0 mg/kg/injection, schedule: Q01DX009 (ip), vehicle: saline): 86 % of control

CCC1(O)CC2CN(CCc3c([nH]c4ccccc34)C(C(=O)OC)(c3cc4c(cc3OC)N(C)C3C(O)(C(N)=O)C(O)C5(CC)C=CCN6CCC43C65)C2)C1 (configuration not stated) (tested in a mixture with another compound)
T/C (dose: 0.6 mg/kg/injection, schedule: Q04DX003 (ip), vehicle: saline): 106 % of control
T/C (dose: 1.0 mg/kg/injection, schedule: Q04DX003 (ip), vehicle: saline): 111 % of control
T/C (dose: 1.67 mg/kg/injection, schedule: Q04DX003 (ip), vehicle: saline): 97 % of control
T/C (dose: 216.0 micrograms/kg/injection, schedule: Q01DX009 (ip), vehicle: saline): 93 % of control
T/C (dose: 360.0 micrograms/kg/injection, schedule: Q01DX009 (ip), vehicle: saline): 97 % of control

CCCCCc1cc(O)c2c(c1)OC(C)(C)[C@@H]1CCC(C)=C[C@@H]21
T/C (dose: 200.0 mg/kg/injection, schedule: Q01DX009 (ip), vehicle: other): 89 % of control
T/C (dose: 800.0 mg/kg/injection, schedule: Q01DX009 (ip), vehicle: other): 88 % of control
